Test results published in paper PMC7614775 (Nature chemical biology, 2022).
“Also recorded” adds a separate entry of the source. Like-named read-outs stand apart in the source and are kept apart here.

Assays:
[1] = molecular target: recombinant JAK1 (WT, C810A, C817A) (Homo sapiens, UniProt P23458); test: Gel-based ABPP in 22Rv1 cells; type: binding; settings: pre-treatment 0.01–1 μM, 2 h, in situ
[2] = test system: IFNα-stimulated human PBMCs; test: Real-Time PCR of interferon-stimulated genes; type: cell-based; settings: compound 2 h, then IFNα 16 h
[3] = test system: prolactin (PRL)-stimulated STAT5 (JAK2-dependent) phosphorylation; test: Phospho-STAT western blot in 22Rv1 cells expressing JAK1 variants; type: cell-based, human; settings: 2 µM, 2 h
JAK1_C817 [4] = molecular target: T1, JAK1_C817 (Homo sapiens, UniProt P23458); test: Untargeted cysteine MS-ABPP, human PBMCs treated in situ; type: binding
T1 sequence (P23458 whole entry): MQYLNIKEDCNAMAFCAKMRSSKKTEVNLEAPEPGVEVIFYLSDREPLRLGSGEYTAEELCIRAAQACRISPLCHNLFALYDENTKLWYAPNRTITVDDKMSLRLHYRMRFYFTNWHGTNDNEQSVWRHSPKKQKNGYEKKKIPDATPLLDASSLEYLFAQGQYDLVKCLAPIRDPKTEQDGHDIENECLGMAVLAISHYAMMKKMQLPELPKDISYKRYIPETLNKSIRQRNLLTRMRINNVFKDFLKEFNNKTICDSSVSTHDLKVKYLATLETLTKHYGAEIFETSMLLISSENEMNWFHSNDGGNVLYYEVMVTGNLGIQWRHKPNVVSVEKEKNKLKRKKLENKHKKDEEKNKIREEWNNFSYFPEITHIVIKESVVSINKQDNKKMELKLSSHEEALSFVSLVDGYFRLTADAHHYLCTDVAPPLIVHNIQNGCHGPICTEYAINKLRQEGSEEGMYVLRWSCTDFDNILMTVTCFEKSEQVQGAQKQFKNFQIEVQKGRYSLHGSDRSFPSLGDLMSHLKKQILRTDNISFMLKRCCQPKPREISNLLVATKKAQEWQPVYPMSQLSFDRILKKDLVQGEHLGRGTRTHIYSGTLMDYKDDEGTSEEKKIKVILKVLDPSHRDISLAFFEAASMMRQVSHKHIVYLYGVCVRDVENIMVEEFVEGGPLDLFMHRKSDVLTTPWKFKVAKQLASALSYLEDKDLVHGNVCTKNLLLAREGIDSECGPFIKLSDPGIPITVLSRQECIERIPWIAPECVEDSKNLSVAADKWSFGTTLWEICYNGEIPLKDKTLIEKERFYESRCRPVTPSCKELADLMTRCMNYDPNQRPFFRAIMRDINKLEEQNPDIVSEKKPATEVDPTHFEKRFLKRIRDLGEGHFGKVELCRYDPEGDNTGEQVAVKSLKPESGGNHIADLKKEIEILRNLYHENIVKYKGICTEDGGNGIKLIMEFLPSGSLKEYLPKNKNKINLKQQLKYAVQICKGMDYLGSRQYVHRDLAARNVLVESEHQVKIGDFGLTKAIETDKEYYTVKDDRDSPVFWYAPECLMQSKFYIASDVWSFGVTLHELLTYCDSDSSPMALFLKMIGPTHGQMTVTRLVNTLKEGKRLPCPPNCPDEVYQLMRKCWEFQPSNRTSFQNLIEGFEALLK

[5] = test system: IL-6-stimulated STAT3 phosphorylation; test: Phospho-STAT western blot in mouse splenocytes; type: cell-based
[6] = test system: IFNα-stimulated STAT1 phosphorylation; test: HTRF phospho-STAT1 assay in human PBMCs; type: cell-based; settings: read-out: IC50, IFNα-stimulated STAT1 phosphorylation (HTRF)
[7] = molecular target: JAK1 phosphorylation (pJAK1; Y1034/Y1035) (Homo sapiens, UniProt P23458); test: JAK1 phosphorylation western blot in 22Rv1 cells expressing JAK1 variants; type: cell-based; settings: WT- and C810A-JAK1
Chain of JAK1 phosphorylation (pJAK1; Y1034/Y1035) (P23458 whole entry): as above

[8] = test system: IFNα-stimulated human PBMCs; test: Multiplex immunoassay of cytokines/chemokines; type: cell-based; settings: compound 2 h, then IFNα 100 ng/mL, 16 h
[9] = test system: IL-2-stimulated STAT5 phosphorylation; test: Phospho-STAT western blot in human PBMCs; type: cell-based; settings: 0.1–1 µM
TOR4A_C21 [10] = molecular target: T2, TOR4A_C21 (Homo sapiens, UniProt Q9NXH8); test: Untargeted cysteine MS-ABPP, human PBMCs treated in situ; type: binding
T2 sequence (Q9NXH8 whole entry): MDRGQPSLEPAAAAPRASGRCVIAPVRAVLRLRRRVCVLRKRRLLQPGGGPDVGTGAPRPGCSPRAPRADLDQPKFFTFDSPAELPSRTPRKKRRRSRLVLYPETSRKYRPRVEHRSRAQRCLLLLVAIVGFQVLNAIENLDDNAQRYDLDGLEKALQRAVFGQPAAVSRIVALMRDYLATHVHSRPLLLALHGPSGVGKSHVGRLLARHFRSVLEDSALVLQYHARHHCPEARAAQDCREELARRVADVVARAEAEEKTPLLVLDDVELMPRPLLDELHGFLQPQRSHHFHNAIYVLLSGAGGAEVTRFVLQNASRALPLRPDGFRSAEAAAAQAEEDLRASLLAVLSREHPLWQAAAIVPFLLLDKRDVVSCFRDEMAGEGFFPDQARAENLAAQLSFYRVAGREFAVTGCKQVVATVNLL

[11] = molecular target: TYK2 phosphorylation (pTYK2) (Homo sapiens, UniProt P29597); test: TYK2 phosphorylation western blot in 22Rv1 cells expressing TYK2 variants; type: cell-based; settings: WT-TYK2
Chain of TYK2 phosphorylation (pTYK2) (P29597 whole entry): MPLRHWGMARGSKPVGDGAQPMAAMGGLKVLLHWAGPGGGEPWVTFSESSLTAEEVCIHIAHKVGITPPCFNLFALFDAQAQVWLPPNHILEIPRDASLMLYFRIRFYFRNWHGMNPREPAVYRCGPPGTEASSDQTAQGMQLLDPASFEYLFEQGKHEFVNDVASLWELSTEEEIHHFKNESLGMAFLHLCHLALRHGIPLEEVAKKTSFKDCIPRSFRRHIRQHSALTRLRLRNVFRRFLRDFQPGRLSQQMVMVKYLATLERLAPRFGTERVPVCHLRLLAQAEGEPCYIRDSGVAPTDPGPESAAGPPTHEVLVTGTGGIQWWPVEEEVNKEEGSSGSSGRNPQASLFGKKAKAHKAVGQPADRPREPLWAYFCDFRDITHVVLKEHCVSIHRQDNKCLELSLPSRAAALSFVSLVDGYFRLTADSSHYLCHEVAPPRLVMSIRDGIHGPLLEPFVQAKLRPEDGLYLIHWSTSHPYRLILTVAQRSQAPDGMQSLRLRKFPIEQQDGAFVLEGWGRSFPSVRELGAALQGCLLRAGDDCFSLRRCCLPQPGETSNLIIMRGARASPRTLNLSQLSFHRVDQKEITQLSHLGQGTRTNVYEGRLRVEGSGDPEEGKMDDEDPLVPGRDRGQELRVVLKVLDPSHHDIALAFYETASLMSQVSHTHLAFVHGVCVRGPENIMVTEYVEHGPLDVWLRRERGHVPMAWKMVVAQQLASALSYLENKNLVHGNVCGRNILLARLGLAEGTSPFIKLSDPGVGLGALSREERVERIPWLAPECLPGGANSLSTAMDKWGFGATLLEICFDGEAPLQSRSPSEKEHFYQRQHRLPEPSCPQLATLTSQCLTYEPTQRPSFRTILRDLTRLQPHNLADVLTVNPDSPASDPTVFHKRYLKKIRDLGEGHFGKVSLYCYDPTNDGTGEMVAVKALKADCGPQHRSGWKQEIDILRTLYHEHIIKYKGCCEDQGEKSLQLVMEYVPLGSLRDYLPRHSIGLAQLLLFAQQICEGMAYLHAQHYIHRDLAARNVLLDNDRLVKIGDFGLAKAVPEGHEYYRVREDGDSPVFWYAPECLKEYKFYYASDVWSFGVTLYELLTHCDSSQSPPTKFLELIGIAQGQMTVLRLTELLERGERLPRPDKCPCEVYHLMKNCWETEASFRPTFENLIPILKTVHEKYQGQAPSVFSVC

[12] = test system: IFNγ-stimulated STAT1 phosphorylation; test: Phospho-STAT western blot in 22Rv1 cells expressing JAK1 variants; type: cell-based, human
[13] = test system: IFNα-stimulated STAT1 phosphorylation (TYK2-dependent); test: Phospho-STAT western blot in 22Rv1 cells expressing TYK2 variants; type: cell-based, human; settings: WT-TYK2 expressing 22Rv1 cells; 2 h
[14] = test system: IL-2-dependent STAT5 phosphorylation; test: Phospho-STAT western blot in mouse splenocytes; type: cell-based; settings: 0.01–0.1 µM
HMOX2_C282 = molecular target: T3, HMOX2_C282 (Homo sapiens, UniProt P30519); test: Untargeted cysteine MS-ABPP, human PBMCs treated in situ; type: binding
T3 sequence (P30519 1-316): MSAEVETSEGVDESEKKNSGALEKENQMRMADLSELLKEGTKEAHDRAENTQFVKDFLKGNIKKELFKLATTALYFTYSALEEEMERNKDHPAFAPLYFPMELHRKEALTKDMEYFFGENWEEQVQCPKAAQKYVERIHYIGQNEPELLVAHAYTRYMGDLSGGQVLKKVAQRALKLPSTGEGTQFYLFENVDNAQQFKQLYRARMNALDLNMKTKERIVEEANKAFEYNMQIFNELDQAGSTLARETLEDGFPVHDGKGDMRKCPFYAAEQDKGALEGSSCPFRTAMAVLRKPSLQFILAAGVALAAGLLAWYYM

[15] = test system: IFNα-stimulated STAT1 phosphorylation; test: Phospho-STAT western blot in human PBMCs; type: cell-based; settings: 0.1 µM
primary human T cells = test: T-cell viability (Near IR Live/Dead stain); type: cell-based; settings: 24 h
[16] = test system: IL-6-stimulated STAT3 phosphorylation; test: Phospho-STAT western blot in 22Rv1 cells expressing JAK1 variants; type: cell-based, human
IL-12-STAT4 signaling = test: Phospho-STAT western blot in mouse splenocytes; type: cell-based
GM-CSF-STAT5 signaling = test: Phospho-STAT western blot in mouse splenocytes; type: cell-based
JAK1_C817 [17] = molecular target: T1, JAK1_C817; test: Targeted MS-ABPP target engagement (TE50) in human cell lysates; type: binding
TYK2_C838 = TYK2_C838 (Homo sapiens, UniProt P29597); test: Untargeted cysteine MS-ABPP, human PBMCs treated in situ; type: binding
Chain of TYK2_C838 (P29597 whole entry): as the sequence (P29597 whole entry) above

TOR4A_C21 [18] = molecular target: T2, TOR4A_C21; test: Untargeted cysteine MS-ABPP, human PBMC lysates treated in vitro; type: binding; settings: PBMC lysate in vitro, 1 h
JAK1_C817 [19] = molecular target: T1, JAK1_C817; test: as above; type: binding; settings: PBMC lysate in vitro, 1 h
[20] = test system: GM-CSF stimulated STAT5 phosphorylation (JAK2-dependent); test: Phospho-STAT western blot in human PBMCs; type: cell-based; settings: compound 2 h, GM-CSF 15 min

Chain of recombinant JAK1 (WT, C810A, C817A) (P23458 whole entry C810A/C817A): as the sequence (P23458 whole entry) above, with C810A, C817A counted along it

SMILES: CS(=O)(=O)N1CC[C@H](C#CC(=O)N2CCC[C@@H](c3ccc(Cl)c(Cl)c3)C2)C1 [VVD-118313]
- competition of probe 6 labeling of WT-JAK1 [1]: blocked in a concentration-dependent manner
- induction of interferon-stimulated genes (OAS1, MX1, IFIT1, CCL2) [2]: blocked the induction
- effect on PRL-induced STAT5 phosphorylation [3]: inactive
- %Engagement (JAK1_C817 [4]; 0.01 µM): 84%
- Engagement Ratio (DMSO/VVD-118313) (JAK1_C817 [4]; 0.01 µM): 6.3
- Engagement Ratio (DMSO/VVD-118313) (JAK1_C817 [4]; 0.1 µM): 20.0
- %Engagement (JAK1_C817 [4]; 1 µM): 96%
- Engagement Ratio (DMSO/VVD-118313) (JAK1_C817 [4]; 1 µM): 20.0
- %Engagement (JAK1_C817 [4]; 10 µM): 97%
- Engagement Ratio (DMSO/VVD-118313) (JAK1_C817 [4]; 10 µM): 20.0
- effect on IL-6-dependent STAT3 phosphorylation ([5]; Tyk2−/− splenocytes): fully blocked
- effect on IL-6-stimulated STAT3 phosphorylation ([5]; WT mouse splenocytes): did not inhibit
- IC50 ([6]; media supplemented with 10% fetal bovine serum (FBS)): 46 nM
- IC50 ([6]; serum-free media): 32 nM
- blockade of JAK1 phosphorylation (maximal activity) ([7]; 0.05 µM): > 90%
- effect on constitutive JAK1 phosphorylation ([7]; 2 µM, 2 h): completely blocked
- induction of pro-inflammatory chemokines (CCL2/MCP-1, CXCL10/IP-10, CCL4/MIP-1β) [8]: near-completely suppressed
- inhibition of IL-2-stimulated STAT5 phosphorylation [9]: ~ 70%
- Engagement Ratio (DMSO/VVD-118313) (TOR4A_C21 [10]; 0.01 µM): 0.9
- Engagement Ratio (DMSO/VVD-118313) (TOR4A_C21 [10]; 0.1 µM): 1.0
- %Engagement (TOR4A_C21 [10]; 1 µM): 65%
- Engagement Ratio (DMSO/VVD-118313) (TOR4A_C21 [10]; 1 µM): 2.9
- %Engagement (TOR4A_C21 [10]; 10 µM): 92%
- Engagement Ratio (DMSO/VVD-118313) (TOR4A_C21 [10]; 10 µM): 11.8
- effect on phosphorylation of the TYK2 activation loop [11]: inhibited
- blockade of IFNγ-stimulated STAT1 phosphorylation ([12]; K908E-JAK1-expressing 22Rv1 cells): ~ 40%
- blockade of IFNγ-stimulated STAT1 phosphorylation ([12]; K908E/C817A-JAK1-expressing 22Rv1 cells): not observed
- effect on IFNγ-stimulated STAT1 phosphorylation ([12]; WT-JAK1 transfected 22Rv1 cells, 1 μM, 2 h): Neither VVD-118313 nor the TYK2 inhibitor BMS-986165 altered
- effect on IFNα-induced STAT1 phosphorylation [13]: blocked
- effect on IL-2-dependent STAT5 phosphorylation [14]: inhibited
- Engagement Ratio (DMSO/VVD-118313) (HMOX2_C282; 0.01 µM): 1.0
- %Engagement (HMOX2_C282; 0.1 µM): 27%
- Engagement Ratio (DMSO/VVD-118313) (HMOX2_C282; 0.1 µM): 1.4
- %Engagement (HMOX2_C282; 1 µM): engaged
- Engagement Ratio (DMSO/VVD-118313) (HMOX2_C282; 1 µM): 12.5
- %Engagement (HMOX2_C282; 10 µM): 98%
- Engagement Ratio (DMSO/VVD-118313) (HMOX2_C282; 10 µM): 20.0
- inhibition of IFNα-stimulated STAT1 phosphorylation [15]: > 85%
- T-cell viability (primary human T cells): Neither compound affected
- inhibition of IL-6-STAT3 phosphorylation ([16]; C817A-JAK1-expressing 22Rv1 cells, up to 2 µM): < 10%
- effect on IL-6-stimulated pSTAT3 ([16]; WT- or C810A-JAK1-expressing 22Rv1 cells, 2 µM, 2 h): blocked
- maximal inhibition of IL-6-STAT3 phosphorylation ([16]; WT- or C810A-JAK1-expressing 22Rv1 cells, at ~0.2 µM): > 80%
- effect on IL-12-STAT4 signaling (IL-12-STAT4 signaling): sparing
- effect on GM-CSF-STAT5 signaling (GM-CSF-STAT5 signaling): sparing
- change of TE50 with preincubation time (JAK1_C817 [17]; Jurkat T-cell lysate, 10, 30 and 60 minutes): time-dependent decreases
- potency compared with the corresponding diastereomers (5c and 5d) (JAK1_C817 [17]; TE50 and pSTAT pIC50): substantially more potent
- %Engagement (TYK2_C838; 0.01 µM): 9%
- Engagement Ratio (DMSO/VVD-118313) (TYK2_C838; 0.01 µM): 1.1
- Engagement Ratio (DMSO/VVD-118313) (TYK2_C838; 0.1 µM): 5.4
- %Engagement (TYK2_C838; 1 µM): 92%
- Engagement Ratio (DMSO/VVD-118313) (TYK2_C838; 1 µM): 12.5
- %Engagement (TYK2_C838; 10 µM): 95%
- Engagement Ratio (DMSO/VVD-118313) (TYK2_C838; 10 µM): 18.2
- %Engagement (TOR4A_C21 [18]; 0.01 µM): 9%
- Engagement Ratio (DMSO/VVD-118313) (TOR4A_C21 [18]; 0.01 µM): 1.1
- %Engagement (TOR4A_C21 [18]; 0.1 µM): 49%
- Engagement Ratio (DMSO/VVD-118313) (TOR4A_C21 [18]; 0.1 µM): 1.9
- %Engagement (TOR4A_C21 [18]; 1 µM): 90%
- Engagement Ratio (DMSO/VVD-118313) (TOR4A_C21 [18]; 1 µM): 10.0
- %Engagement (TOR4A_C21 [18]; 10 µM): 97%
- Engagement Ratio (DMSO/VVD-118313) (TOR4A_C21 [18]; 10 µM): 20.0
- %Engagement (JAK1_C817 [19]; 0.01 µM): 81%
- Engagement Ratio (DMSO/VVD-118313) (JAK1_C817 [19]; 0.01 µM): 5.1
- %Engagement (JAK1_C817 [19]; 0.1 µM): 96%
- Engagement Ratio (DMSO/VVD-118313) (JAK1_C817 [19]; 0.1 µM): 20.0
- %Engagement (JAK1_C817 [19]; 1 µM): 97%
- Engagement Ratio (DMSO/VVD-118313) (JAK1_C817 [19]; 1 µM): 20.0
- %Engagement (JAK1_C817 [19]; 10 µM): 98%
- Engagement Ratio (DMSO/VVD-118313) (JAK1_C817 [19]; 10 µM): 20.0
- effect on GM-CSF stimulated STAT5 phosphorylation [20]: no effect; also recorded: modest inhibitory effects
